In general, IC50 refers to the concentration at which inhibition is half-maximal. A lower IC50 goes with inhibition by little substance.

The record followed here is patent US8377975B2, “Oxadiazole derivatives for the treatment of diabetes” (Merck Patent Gesellschaft Mit Beschrankter Haftung, priority 2008, dated 2013).

Type in all cases: biochemical
One assay deals with T1, SGK1 (Homo sapiens, UniProt O00141).
T1 sequence (O00141 1-431): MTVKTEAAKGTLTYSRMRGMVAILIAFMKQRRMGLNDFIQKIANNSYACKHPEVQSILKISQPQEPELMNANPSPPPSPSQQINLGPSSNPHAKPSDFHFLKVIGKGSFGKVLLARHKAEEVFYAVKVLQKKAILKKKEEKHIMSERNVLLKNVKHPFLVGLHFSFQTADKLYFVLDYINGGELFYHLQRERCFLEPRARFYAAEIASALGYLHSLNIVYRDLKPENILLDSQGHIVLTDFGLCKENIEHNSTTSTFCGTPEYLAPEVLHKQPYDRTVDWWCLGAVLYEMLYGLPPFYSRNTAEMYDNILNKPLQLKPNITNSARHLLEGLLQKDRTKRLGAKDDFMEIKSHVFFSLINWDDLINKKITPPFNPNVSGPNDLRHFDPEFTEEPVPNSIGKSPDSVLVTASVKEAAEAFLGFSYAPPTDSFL
Briefly: SGK1 enzyme inhibition (filter binding method). The settings on record: Target SGK1. An excerpt: Other assays are known from the literature and could readily be performed by the person skilled in the art (see, for example, Dhanabal et al., Cancer Res. 59:189-197; Xin at al., J. Biol. Chem. 274:9116-9121; Sheu et al., Anticancer Res. 18:4435-4441; Ausprunk et al., Dev. Biol. 38:237-248; Gimbrone et al., J. Natl. Cancer Inst. 52:413-427; Nicosia at al., In Vitro 18:538- 549). The inhibition of SGK1 protein kinase can be determined in the filter binding method.

The target of another assay is T2, SGK2 (Homo sapiens, UniProt Q9HBY8).
T2 sequence (Q9HBY8 1-367): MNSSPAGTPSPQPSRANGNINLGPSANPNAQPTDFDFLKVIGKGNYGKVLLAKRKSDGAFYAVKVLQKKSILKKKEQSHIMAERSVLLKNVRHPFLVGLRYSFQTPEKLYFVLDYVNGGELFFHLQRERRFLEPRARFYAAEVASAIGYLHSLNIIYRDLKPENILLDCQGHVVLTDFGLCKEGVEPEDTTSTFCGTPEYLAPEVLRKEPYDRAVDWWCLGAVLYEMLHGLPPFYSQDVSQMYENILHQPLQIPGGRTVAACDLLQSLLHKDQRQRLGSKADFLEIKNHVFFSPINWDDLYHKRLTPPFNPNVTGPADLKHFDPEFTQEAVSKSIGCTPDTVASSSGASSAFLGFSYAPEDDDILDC
The assay is described as follows: SGK2 enzyme inhibition. The note with it: Target SGK2.

The next assay addresses T3, SGK3 (Homo sapiens, UniProt Q96BR1).
T3 sequence (Q96BR1 1-496): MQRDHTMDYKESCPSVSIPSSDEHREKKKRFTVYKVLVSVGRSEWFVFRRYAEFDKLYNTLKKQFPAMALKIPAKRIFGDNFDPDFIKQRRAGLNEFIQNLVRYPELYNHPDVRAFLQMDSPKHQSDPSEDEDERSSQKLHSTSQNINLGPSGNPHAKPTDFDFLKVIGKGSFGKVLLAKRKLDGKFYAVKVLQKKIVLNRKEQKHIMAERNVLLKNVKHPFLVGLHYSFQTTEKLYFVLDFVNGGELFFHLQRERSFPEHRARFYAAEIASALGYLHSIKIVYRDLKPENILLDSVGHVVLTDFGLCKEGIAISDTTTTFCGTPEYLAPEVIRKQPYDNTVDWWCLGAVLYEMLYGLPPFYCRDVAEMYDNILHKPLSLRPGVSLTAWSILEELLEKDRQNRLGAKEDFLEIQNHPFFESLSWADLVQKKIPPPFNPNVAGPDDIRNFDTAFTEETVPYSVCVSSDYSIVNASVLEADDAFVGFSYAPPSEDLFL
The assay is described as follows: SGK3 enzyme inhibition. The settings on record: Target SGK3.

A further assay has as its target GSK3-beta (Homo sapiens, UniProt P49841). The assay is described as follows: GSK3-beta enzyme inhibition. The settings on record: Target GSK3-beta.

Sequence of GSK3-beta (P49841 whole entry): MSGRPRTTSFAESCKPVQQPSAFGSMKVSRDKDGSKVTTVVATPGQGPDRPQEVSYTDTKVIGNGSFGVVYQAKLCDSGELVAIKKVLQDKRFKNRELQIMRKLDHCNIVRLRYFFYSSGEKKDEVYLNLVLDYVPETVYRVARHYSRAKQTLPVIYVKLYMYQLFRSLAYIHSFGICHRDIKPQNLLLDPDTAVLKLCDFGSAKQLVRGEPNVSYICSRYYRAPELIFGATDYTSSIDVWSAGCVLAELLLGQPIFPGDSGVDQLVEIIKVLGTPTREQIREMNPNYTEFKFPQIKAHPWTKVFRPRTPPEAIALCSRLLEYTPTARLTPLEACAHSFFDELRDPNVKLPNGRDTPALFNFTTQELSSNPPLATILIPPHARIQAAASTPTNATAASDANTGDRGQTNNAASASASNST

Turning to `CCc1c(-c2nnc(NCc3cccc(F)c3)o2)ccc(O)c1C` [Compound A1, 3-ethyl-4-[5-(3-fluorobenzylamino)-1,3,4-oxadiazol-2-yl]-2-methylphenol], the IC50 on SGK1, against SGK2, on SGK3 and against GSK3-beta was 1 to 100 nM in each case.

As to `CCc1c(-c2nnc(NCc3cccc(OC)c3)o2)ccc(O)c1C` [Compound A2], the 50% inhibitory concentration (IC50) on SGK1 was 1 to 100 nM; at GSK3-beta, 100 to 10000 nM. On to `CCc1c(-c2nnc(N[C@H](C)c3cccc(OC)c3)o2)ccc(O)c1C` [Compound A3], for which the IC50 on SGK1 and against GSK3-beta was 1 to 100 nM throughout. With `CCc1c(-c2nnc(N)o2)ccc(O)c1C` [Compound A4, 4-(5-amino-1,3,4-oxadiazol-2-yl)-3-ethyl-2-methylphenol], the IC50 at SGK1 lay within 100 to 10000 nM. For `Oc1ccc(-c2nnc(NCc3cccc(F)c3)o2)nc1` [Compound A5, 6-[5-(3-fluorobenzylamino)-1,3,4-oxadiazol-2-yl]pyridin-3-ol], the IC50 on SGK1 was greater than 10000 nM.

For the compound `Oc1ccc(-c2nnc(NCc3cccc(F)c3)o2)c(F)c1F` [Compound A6, 2,3-difluoro-4-[5-(3-fluorobenzylamino)-1,3,4-oxadiazol-2-yl]phenol], the IC50 at SGK1 was greater than 10000 nM.
